Measured values taken from ChEMBL document CHEMBL1201862, “PubChem BioAssay data set” (2004).
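Following 48 hours of exposure in 96-well plates, responses at five concentrations were used to interpolate endpoints linearly. GI50 = concentration required for 50% inhibition of growth.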 The source made the active and inactive calls. Cut-off read from the data, not from the text of the source: active = GI50 up to about 1.1 µM and inactive = higher.

Legend:
Experiment in all cases: inhibition of tumour cell growth, NCI panel, 48 h
[1] = tested on: DLD-1
[2] = tested on: DMS-114
[3] = tested on: DMS-273
[4] = tested on: HOP-18
[5] = tested on: KM-20L2
[6] = tested on: M19-MEL
[7] = tested on: RXF 631
[8] = tested on: SNB-78
[9] = tested on: XF498

## CC1(C)CC(=O)c2c(oc3cc(O)c(O)cc23)C1
[1]
  GI50: 22.9 µM (inactive)
[2]
  GI50: 13.2 µM (inactive)
[3]
  GI50: 28.6 µM (inactive)
[4]
  GI50: 40.1 µM (inactive)
[5]
  GI50: 33.7 µM (inactive)
[6]
  GI50: 35.3 µM (inactive)
[7]
  GI50: 26.3 µM (inactive)
[8]
  GI50: 46.9 µM (inactive)

## COc1cc2c(c(OC)c1OC)-c1ccc(SC)c(=O)cc1C(NC(=O)c1ccccc1)CC2 (centres undefined)
[1]
  GI50: < 0.01 µM (active)
[3]
  GI50: < 0.01 µM (active)
[4]
  GI50: 77.1 µM (inactive)
[5]
  GI50: < 0.01 µM (active)
[8]
  GI50: < 0.01 µM (active)
[9]
  GI50: < 0.0601 µM (active)

## CCn1c2c(c3ccccc31)[C@@H](c1ccc(Cl)cc1)CC1C(=O)N(c3ccccc3)C(=O)C21 (some centres undefined)
[1]
  GI50: > 100 µM (inactive)
[2]
  GI50: 46.8 µM (inactive)
[3]
  GI50: > 100 µM (inactive)
[4]
  GI50: > 100 µM (inactive)
[5]
  GI50: > 100 µM (inactive)
[6]
  GI50: > 100 µM (inactive)
[8]
  GI50: 26.4 µM (inactive)
[9]
  GI50: 64.6 µM (inactive)

## O=C(CC1(O)C(=O)Nc2ccccc21)c1ccc(Cl)c(Cl)c1 (centres undefined)
[1]
  GI50: > 100 µM (inactive)
[2]
  GI50: > 100 µM (inactive)
[3]
  GI50: > 100 µM (inactive)
[5]
  GI50: > 100 µM (inactive)
[6]
  GI50: 77.4 µM (inactive)
[8]
  GI50: 97.3 µM (inactive)

## CC1=C(c2cc(C(=O)Nc3cc(C)ccc3C)nc(N)n2)Sc2ccccc2N1
[1]
  GI50: > 100 µM (inactive)
[2]
  GI50: > 100 µM (inactive)
[3]
  GI50: > 100 µM (inactive)
[4]
  GI50: > 100 µM (inactive)
[5]
  GI50: > 100 µM (inactive)
[6]
  GI50: > 100 µM (inactive)
[7]
  GI50: > 100 µM (inactive)
[8]
  GI50: > 100 µM (inactive)

## C=CCc1cc(OC)c2c(c1)C(OC)CC(c1ccc(OC)c(OC)c1)O2 (centres undefined)
[1]
  GI50: > 100 µM (inactive)
[2]
  GI50: 67.5 µM (inactive)
[3]
  GI50: > 100 µM (inactive)
[5]
  GI50: > 100 µM (inactive)
[6]
  GI50: > 100 µM (inactive)
[7]
  GI50: > 100 µM (inactive)
[8]
  GI50: > 100 µM (inactive)
[9]
  GI50: > 100 µM (inactive)

## Cc1ccc([N+](=O)[O-])cc1NC(=O)/C(=N/NC(=S)NN)C1SC(=S)NC1=O (centres undefined)
[1]
  GI50: > 100 µM (inactive)
[2]
  GI50: > 100 µM (inactive)
[3]
  GI50: > 100 µM (inactive)
[4]
  GI50: > 100 µM (inactive)
[5]
  GI50: > 100 µM (inactive)
[8]
  GI50: > 100 µM (inactive)
[9]
  GI50: > 100 µM (inactive)

## COc1cc(/C=C2\[C@H]3c4c(c(OC)c(C)c(OC)c4OC)C[C@@H](C(=O)N2Cc2ccccc2)N3C(=O)OCC(C)C)c(OC)c(C)c1OC
[1]
  GI50: > 100 µM (inactive)
[3]
  GI50: 47.1 µM (inactive)
[4]
  GI50: > 100 µM (inactive)
[5]
  GI50: > 69.8 µM (inactive)
[6]
  GI50: > 100 µM (inactive)
[9]
  GI50: 40.6 µM (inactive)

## C[n+]1c(Cl)cn2c3nc4ccccc4nc3c([O-])c(C#N)c21
[1]
  GI50: < 0.01 µM (active)
[2]
  GI50: > 100 µM (inactive)
[3]
  GI50: > 100 µM (inactive)
[4]
  GI50: > 100 µM (inactive)
[6]
  GI50: < 0.01 µM (active)
[8]
  GI50: > 100 µM (inactive)
[9]
  GI50: > 100 µM (inactive)

## COC1=CC(=Nc2c(Cl)cc(Cl)cc2OC(=O)c2ccc([N+](=O)[O-])cc2)C=C(OC)C1=O
[1]
  GI50: 12.4 µM (inactive)
[2]
  GI50: 3.79 µM (inactive)
[3]
  GI50: 13.6 µM (inactive)
[5]
  GI50: 17.7 µM (inactive)
[6]
  GI50: 3.41 µM (inactive)
[7]
  GI50: 4.51 µM (inactive)
[8]
  GI50: 23.3 µM (inactive)
[9]
  GI50: 8.39 µM (inactive)

## CC1=NOC(=O)/C1=C/c1ccccc1O
[1]
  GI50: > 100 µM (inactive)
[2]
  GI50: > 100 µM (inactive)
[3]
  GI50: > 100 µM (inactive)
[4]
  GI50: > 100 µM (inactive)
[5]
  GI50: > 100 µM (inactive)
[6]
  GI50: > 100 µM (inactive)
[7]
  GI50: > 100 µM (inactive)
[8]
  GI50: > 100 µM (inactive)
[9]
  GI50: > 100 µM (inactive)

## CC(C)=C1CCC(CN2CCOCC2)C1=O (centres undefined)
[1]
  GI50: 4.38 µM (inactive)
[2]
  GI50: 7.89 µM (inactive)
[4]
  GI50: 9.35 µM (inactive)
[5]
  GI50: 16.4 µM (inactive)
[6]
  GI50: 22.1 µM (inactive)
[7]
  GI50: 9.23 µM (inactive)
[8]
  GI50: 9.38 µM (inactive)
[9]
  GI50: 12.7 µM (inactive)

## COC(=O)Nc1nc2cc(Br)ccc2[nH]1
[1]
  GI50: 42.3 µM (inactive)
[2]
  GI50: 23.1 µM (inactive)
[3]
  GI50: 16 µM (inactive)
[4]
  GI50: 64.1 µM (inactive)
[5]
  GI50: 21.2 µM (inactive)
[6]
  GI50: 28.8 µM (inactive)
[8]
  GI50: 42.4 µM (inactive)
[9]
  GI50: 23.6 µM (inactive)

## C/N=C1\CC2c3cc(OC)c(OC)cc3CCN2C2=C1C(=O)CC(C)(C)C2 (centres undefined)
[1]
  GI50: > 100 µM (inactive)
[2]
  GI50: > 100 µM (inactive)
[3]
  GI50: > 100 µM (inactive)
[5]
  GI50: > 100 µM (inactive)
[6]
  GI50: > 100 µM (inactive)
[8]
  GI50: > 100 µM (inactive)

## C=CCOC(=O)C1CCC(=O)N1C(=O)C(Cl)Cl (centres undefined)
[1]
  GI50: > 100 µM (inactive)
[2]
  GI50: > 100 µM (inactive)
[3]
  GI50: > 100 µM (inactive)
[4]
  GI50: > 100 µM (inactive)
[5]
  GI50: > 100 µM (inactive)
[6]
  GI50: > 100 µM (inactive)
[8]
  GI50: > 100 µM (inactive)
[9]
  GI50: 17.7 µM (inactive)

## COc1c(C)cc2c(C(C)C)c(O)c(O)c(C=O)c2c1O
[1]
  GI50: 32.1 µM (inactive)
[2]
  GI50: 17.8 µM (inactive)
[3]
  GI50: 23 µM (inactive)
[4]
  GI50: 14.9 µM (inactive)
[5]
  GI50: 19.7 µM (inactive)
[6]
  GI50: 26.5 µM (inactive)
[8]
  GI50: 27.9 µM (inactive)
[9]
  GI50: 39 µM (inactive)

## O=c1/c(=C/c2cccc3ccccc23)sc2nc3ccccc3n12
[1]
  GI50: > 100 µM (inactive)
[2]
  GI50: > 100 µM (inactive)
[3]
  GI50: > 100 µM (inactive)
[4]
  GI50: > 100 µM (inactive)
[5]
  GI50: > 100 µM (inactive)
[6]
  GI50: > 100 µM (inactive)
[7]
  GI50: > 100 µM (inactive)
[8]
  GI50: > 100 µM (inactive)

## NN/C(Cc1ccccc1)=N\NO
[1]
  GI50: > 100 µM (inactive)
[2]
  GI50: 25.5 µM (inactive)
[3]
  GI50: > 100 µM (inactive)
[4]
  GI50: > 100 µM (inactive)
[5]
  GI50: 32.5 µM (inactive)
[6]
  GI50: > 100 µM (inactive)
[7]
  GI50: 32.2 µM (inactive)

## Cc1nc(-c2nc(C)c(C(=O)NN(C)C)s2)sc1C(=O)NN(C)C
[1]
  GI50: 33.9 µM (inactive)
[3]
  GI50: 16.2 µM (inactive)
[4]
  GI50: > 100 µM (inactive)
[5]
  GI50: > 100 µM (inactive)
[6]
  GI50: > 100 µM (inactive)
[8]
  GI50: > 100 µM (inactive)
[9]
  GI50: > 100 µM (inactive)

## O=c1/c(=C/c2ccccc2F)sc2nc3ccccc3n12
[1]
  GI50: > 100 µM (inactive)
[2]
  GI50: 67.3 µM (inactive)
[3]
  GI50: > 100 µM (inactive)
[5]
  GI50: > 100 µM (inactive)
[6]
  GI50: > 100 µM (inactive)
[7]
  GI50: > 100 µM (inactive)
[8]
  GI50: > 100 µM (inactive)
[9]
  GI50: > 100 µM (inactive)

## CCOc1ccccc1/N=C(/NC(=O)CC)SC
[1]
  GI50: 88.3 µM (inactive)
[2]
  GI50: > 10 µM (inactive)
[3]
  GI50: > 10 µM (inactive)
[4]
  GI50: > 10 µM (inactive)
[5]
  GI50: > 10 µM (inactive)
[6]
  GI50: > 10 µM (inactive)
[7]
  GI50: > 10 µM (inactive)
[8]
  GI50: > 10 µM (inactive)

## Cc1ccc(Nc2ccc(Nc3ccc(C)cc3S(=O)(=O)O)c3c2C(=O)c2ccccc2C3=O)c(S(=O)(=O)O)c1
[1]
  GI50: > 100 µM (inactive)
[2]
  GI50: > 100 µM (inactive)
[3]
  GI50: > 100 µM (inactive)
[4]
  GI50: > 100 µM (inactive)
[5]
  GI50: > 100 µM (inactive)
[7]
  GI50: > 100 µM (inactive)
[8]
  GI50: > 100 µM (inactive)

## CC[C@@H]1C[C@H]2CC3c4[nH]c5ccc(O)cc5c4CCN(C2)C31
[2]
  GI50: > 100 µM (inactive)
[3]
  GI50: > 100 µM (inactive)
[4]
  GI50: > 100 µM (inactive)
[5]
  GI50: > 100 µM (inactive)
[6]
  GI50: > 100 µM (inactive)
[7]
  GI50: > 100 µM (inactive)
[8]
  GI50: > 100 µM (inactive)
[9]
  GI50: > 100 µM (inactive)

## CC1=Cc2cccc(C)c2C(=O)C1=O [O-HIBISCANONE]
[1]
  GI50: 2.13 µM (inactive)
[3]
  GI50: 19.9 µM (inactive)
[4]
  GI50: 1.42 µM (inactive)
[5]
  GI50: 18.9 µM (inactive)
[6]
  GI50: 7.67 µM (inactive)
[8]
  GI50: 26 µM (inactive)
[9]
  GI50: 5.2 µM (inactive)
